From paper PMC6522510 (Nature Communications, 2019)
Like-named read-outs stand apart in the source and are kept apart here.

Tests used:
[1] = test system: M07e; test: Secondary dose-response HTS, Cell Titer Glo; format: cell-based, human; settings: secondary high-throughput screen; for EC50: read-out: average effective concentration, M07e
[2] = test system: MOLM-13; test: Secondary dose-response HTS, Cell Titer Glo; format: cell-based, human
[3] = test system: CMK; test: Secondary dose-response HTS, Cell Titer Glo; format: cell-based, human; settings: CMK; for EC50: read-out: average effective concentration, CMK
[4] = test system: MV4-11; test: Secondary dose-response HTS, Cell Titer Glo; format: cell-based, human; settings: for EC50: Homo sapiens
[5] = test system: ML2; test: Secondary dose-response HTS, Cell Titer Glo; format: cell-based, human
[6] = test system: U937; test: Secondary dose-response HTS, Cell Titer Glo; format: cell-based, human; settings: secondary high-throughput screen, U937; for EC50: read-out: average effective concentration, U937
[7] = test system: CHRF288-11; test: Secondary dose-response HTS, Cell Titer Glo; format: cell-based, human; settings: for EC50: Homo sapiens, HTS, read-out: average effective concentration, CHRF288-11
[8] = test system: CMS; test: Secondary dose-response HTS, Cell Titer Glo; format: cell-based, human; settings: Homo sapiens, HTS, read-out: average effective concentration, CMS
[9] = test system: U937; test: cells; parameters: species or system AML cell lines (8); Secondary HTS, 10-point dose-response in triplicate, Cell Titer Glo viability, four-parameter fit EC50; settings: Homo sapiens, U-937, 72 h, read-out: U937
[10] = test system: M07e; test: cells; parameters: species or system AML cell lines (8); Secondary HTS, 10-point dose-response in triplicate, Cell Titer Glo viability, four-parameter fit EC50; settings: M-07e, 72 h, read-out: M07e
[11] = test system: CHRF288-11; test: cells; parameters: species or system AML cell lines (8); Secondary HTS, 10-point dose-response in triplicate, Cell Titer Glo viability, four-parameter fit EC50; settings: 72 h, read-out: CHRF288-11
[12] = test system: CMK; test: cells; parameters: species or system AML cell lines (8); Secondary HTS, 10-point dose-response in triplicate, Cell Titer Glo viability, four-parameter fit EC50; settings: Homo sapiens, CMK, 72 h, read-out: CMK
[13] = test system: CMS; test: cells; parameters: species or system AML cell lines (8); Secondary HTS, 10-point dose-response in triplicate, Cell Titer Glo viability, four-parameter fit EC50; settings: 72 h, read-out: CMS
[14] = test system: MV4-11; test: cells; parameters: species or system AML cell lines (8); Secondary HTS, 10-point dose-response in triplicate, Cell Titer Glo viability, four-parameter fit EC50; settings: Homo sapiens, MV4-11, 72 h, read-out: MV4-11
[15] = test system: MOLM-13; test: cells; parameters: species or system AML cell lines (8); Secondary HTS, 10-point dose-response in triplicate, Cell Titer Glo viability, four-parameter fit EC50; settings: Homo sapiens, MOLM-13, 72 h, read-out: MOLM-13
[16] = secondary high-throughput screen, MOLM-13
[17] = secondary high-throughput screen
[18] = secondary high-throughput screen, MV4-11
[19] = secondary high-throughput screen, ML-2
[20] = secondary high-throughput screen, CHRF288-11
[21] = Homo sapiens, secondary high-throughput screen, MOLM-13, read-out: average effective concentration, MOLM-13
[22] = secondary high-throughput screen, MV4-11, read-out: average effective concentration, MV4-11
[23] = Homo sapiens, secondary high-throughput screen, ML-2, read-out: average effective concentration, ML-2
[24] = secondary high-throughput screen, CMS

Compound: CN[C@@H]1C[C@H]2O[C@@](C)([C@@H]1OC)n1c3ccccc3c3c4c(c5c6ccccc6n2c5c31)C(=O)N[C@H]4O [Compound 7-HYDROXYSTAUROSPORINE]
- average effective concentration, M07e ([1]; […]): Inactive

Compound: CCOC(=O)C1=C(C)NC2=C(C(=O)CC(C)(C)C2)C1c1ccc(-c2ccccc2)cc1 (stereo not drawn) [ITD-1]
- average effective concentration, MOLM-13 [2, 16]: Inactive
- average effective concentration, CMK [3, 17]: Inactive
- average effective concentration, MV4-11 [4, 18]: Inactive
- average effective concentration, M07e ([1]; M07e): Inactive
- average effective concentration, ML-2 [5, 19]: Inactive
- average effective concentration, U937 [6]: Inactive
- average effective concentration, CHRF288-11 [7, 20]: Inactive

Compound: Cn1cc(-c2cnn3c(N)c(Br)c([C@@H]4CCCNC4)nc23)cn1 [SCH-900776]
- EC50 [8]: > 10000 nM
- EC50 ([2]; Homo sapiens, MOLM-13, read-out: average effective concentration, MOLM-13): 51 nM
- EC50 ([3]; Homo sapiens): 130 nM
- EC50 [9]: > 10 µM
- EC50 ([4]; MV4-11, read-out: average effective concentration, MV4-11): 83 nM
- EC50 ([5]; Homo sapiens, ML-2, read-out: average effective concentration, ML-2): 53 nM
- EC50 [10]: > 10 µM
- EC50 [7]: 470 nM

Compound: CCOc1cc(N2CCC(O)CC2)ccc1Nc1ncc2c(n1)N(C)c1ccccc1C(=O)N2C [XMD 8-92]
- average effective concentration, M07e ([1]; M07e): Inactive
- average effective concentration, ML-2 [5, 19]: Inactive
- average effective concentration, CHRF288-11 [7, 20]: Inactive

Compound: CCNC(=O)c1cc2c(-c3cc(OCCN4CCCC4)c(Cl)cc3Cl)nc(N)nc2s1 [NVP-BEP800]
- average effective concentration, M07e ([1]; […]): Inactive

Compound: CC(C)(C#N)c1ccc(N2C(=O)OCc3cnc4ccc(-c5cnc6ccccc6c5)cc4c32)cc1 [ETP-46464]
- average effective concentration, MOLM-13 [2, 16]: Inactive
- average effective concentration, MV4-11 [4, 18]: Inactive
- average effective concentration, M07e ([1]; […]): Inactive

Compound: C[C@@H](Oc1cc(-n2cnc3ccc(CN4CCN(C)CC4)cc32)sc1C(N)=O)c1ccccc1C(F)(F)F [GSK461364]
- EC50 [8]: 10000 nM
- EC50 [2, 21]: 170 nM
- EC50 ([3]; Homo sapiens): 750 nM
- EC50 [4, 22]: 590 nM
- EC50 [11]: > 10 µM
- EC50 [5, 23]: 59 nM
- EC50 ([6]; Homo sapiens, U-937): 90 nM
- EC50 [10]: > 10 µM

Compound: Nc1ncn([C@@H]2O[C@H](CO)[C@@H](O)[C@H]2O)c(=O)n1 [Compound 5-AZACYTIDINE]
- average effective concentration, MV4-11 [4, 18]: Inactive
- average effective concentration, M07e ([1]; M07e): Inactive
- average effective concentration, CHRF288-11 [7, 20]: Inactive

Compound: CCC1=C[C@@H]2CN(C1)Cc1c([nH]c3ccccc13)[C@@](C(=O)OC)(c1cc3c(cc1OC)N(C)[C@H]1[C@@](O)(C(=O)OC)[C@H](OC(C)=O)[C@]4(CC)C=CCN5CC[C@]31[C@@H]54)C2 [VINORELBINE]
- EC50 [8]: 240 nM
- EC50 [2, 21]: 29 nM
- EC50 [12]: > 10 µM
- EC50 [4, 22]: 32 nM
- EC50 [5, 23]: 40 nM
- EC50 ([6]; Homo sapiens, U-937): 32 nM
- EC50 [10]: > 10 µM
- EC50 [7, 20]: 2100 nM

Compound: CC(C)c1cc(-c2n[nH]c(=O)n2-c2ccc3c(ccn3C)c2)c(O)cc1O [GANETESPIB]
- EC50 [8]: 10 nM
- EC50 [2, 21]: 2.4 nM
- EC50 ([3]; Homo sapiens): 2.3 nM
- EC50 [4, 22]: 1 nM
- EC50 [5, 23]: 5.4 nM
- EC50 ([6]; Homo sapiens, U-937): 1.6 nM
- EC50 [13]: 9.6 nM
- EC50 [10]: > 10 µM
- EC50 [7, 20]: 7 nM

Compound: COc1cc(F)c(F)c(Nc2ccc(I)cc2F)c1NS(=O)(=O)C1(C[C@H](O)CO)CC1 [REFAMETINIB]
- EC50 [8, 24]: > 10000 nM
- EC50 [2, 21]: 1200 nM
- EC50 ([3]; Homo sapiens, secondary high-throughput screen): 8600 nM
- EC50 [14]: > 10 µM
- EC50 [9]: > 10 µM
- EC50 [11]: > 10 µM
- EC50 [5, 23]: 1 nM
- EC50 [10]: > 10 µM

Compound: OC(c1cc(C(F)(F)F)nc2c(C(F)(F)F)cccc12)C1CCCCN1 (stereo not drawn) [MEFLOQUINE]
- EC50 [8, 24]: > 10000 nM
- EC50 [12]: > 10 µM
- EC50 [14]: > 10 µM
- EC50 [5, 23]: > 10000 nM
- EC50 ([6]; Homo sapiens, U-937): > 10000 nM
- EC50 [10]: > 10 µM
- EC50 [7, 20]: > 10000 nM
- EC50 [15]: > 10 µM

Compound: CC(C)c1cc(C(=O)N2Cc3ccc(CN4CCN(C)CC4)cc3C2)c(O)cc1O [AT13387]
- EC50 [8]: 34 nM
- EC50 ([3]; Homo sapiens): 11 nM
- EC50 [9]: > 10 µM
- EC50 [4, 22]: 8 nM
- EC50 [5, 23]: 23 nM
- EC50 [10]: > 10 µM
- EC50 [7, 20]: 39 nM
- EC50 [15]: 0.0094 µM

Compound: O=C(/C=C/c1cccc(C(=O)NO)c1)NO [CBHA]
- EC50 ([2]; secondary high-throughput screen, MOLM-13, read-out: average effective concentration, MOLM-13): 2400 nM
- average effective concentration, CMK [3, 17]: Inactive
- average effective concentration, MV4-11 [4, 18]: Inactive
- EC50 ([1]; M07e): 2200 nM
- EC50 ([5]; secondary high-throughput screen, ML-2, read-out: average effective concentration, ML-2): 5200 nM
- EC50 [6]: 1300 nM

Compound: CC(=O)Nc1ccc(NC(=S)NC(=O)c2ccc(C(C)(C)C)cc2)cc1 [TENOVIN-1]
- average effective concentration, MOLM-13 [2, 16]: Inactive
- average effective concentration, CMK [3, 17]: Inactive
- average effective concentration, MV4-11 [4, 18]: Inactive
- average effective concentration, M07e ([1]; M07e): Inactive
- average effective concentration, ML-2 [5, 19]: Inactive
- average effective concentration, CHRF288-11 [7, 20]: Inactive

Compound: Cn1cc(C(=O)Cc2ccccc2)cc1/C=C/C(=O)NO [MC 1293]
- EC50 [3, 17]: 8700 nM
- average effective concentration, MV4-11 [4, 18]: Inactive
- EC50 ([1]; M07e): 450 nM
- average effective concentration, U937 [6]: Inactive
- average effective concentration, CHRF288-11 [7, 20]: Inactive

Compound: Cn1c(Nc2ccc(C(F)(F)F)cc2)nc2cc(Oc3ccnc(-c4ncc(C(F)(F)F)[nH]4)c3)ccc21 [CHIR-265]
- EC50 [8, 24]: 10000 nM
- EC50 [12]: > 10 µM
- EC50 [14]: > 10 µM
- EC50 [9]: > 10 µM
- EC50 [5, 23]: > 10000 nM
- EC50 [10]: > 10 µM
- EC50 [7, 20]: 6800 nM
- EC50 [15]: > 10 µM

Compound: CN1CC[C@H](c2c(O)cc(O)c3c(=O)cc(-c4ccccc4Cl)oc23)[C@H](O)C1 [ALVOCIDIB]
- EC50 [8, 24]: 64 nM
- EC50 [2, 21]: 36 nM
- EC50 [12]: > 10 µM
- EC50 [4, 22]: 50 nM
- EC50 [11]: > 10 µM
- EC50 [5, 23]: 47 nM
- EC50 ([6]; Homo sapiens, U-937): 29 nM
- EC50 [10]: > 10 µM

Compound: COc1ccc(-c2cc3c(C)nc(N)nc3n([C@H]3CC[C@H](OCCO)CC3)c2=O)cn1 [PF-04691502]
- average effective concentration, M07e ([1]; M07e): Inactive

Compound: CC(C)c1cccc(C(C)C)c1N1C(=O)c2ccc(O)cc2C1=O [Compound 5HPP-33]
- average effective concentration, MOLM-13 [2, 16]: Inactive
- average effective concentration, CMK [3, 17]: Inactive
- average effective concentration, MV4-11 [4, 18]: Inactive
- average effective concentration, M07e ([1]; M07e): Inactive
- average effective concentration, CHRF288-11 [7, 20]: Inactive
